From patent publication US20150323520A1, “DIAGNOSIS OF KIDNEY TRANSPLANT ACUTE REJECTION” (The Trustees of the Stevens Institute of Technology, priority 2014, published 2015)

Assay: Mannitol in urine of kidney transplant patients the day after surgery (SERS / ESI-MS)
Type: in vivo
Description: FIG. 2 is a graph 200 showing SERS spectra for patients who have received kidney transplants and are experiencing AR. The graph 200 plots Raman intensity, in arbitrary units (“a.u.”), along a vertical axis 210 against Raman shift, in cm^−1, along a horizontal axis 220. As a baseline, the chart 200 includes a background spectrum 230 that may be measured when a SERS sensor (e.g., the device 100 of FIG. 1) is immersed in water. The chart 200 also includes three SERS spectra 240, 250, 260 that may be measured when the same SERS sensor is immersed in urine samples of three AR patients. It may be observed that each of the three SERS spectra 240, 250, 260 includes a corresponding peak 242, 252, 262, at a value of about 1360 cm^−1 along the horizontal axis 220. FIG. 3 is a graph 300 showing SERS spectra for patients who have received kidney transplants and are not experiencing AR. The graph 300 plots Raman intensity, in arbitrary units (“a.u.”), along a vertical axis 310 against Raman shift, in cm^−1, along a horizontal axis 320. As a baseline, the chart 300 includes a background spectrum 330 that may be measured when a SERS sensor (e.g., the device 100 of FIG. 1) is immersed in water (e.g., the same background spectrum as is shown in FIG. 2). The chart 300 also includes three SERS spectra 340, 350, 360 that may be measured when the same SERS sensor is immersed in urine samples of three kidney transplant recipients who are not experiencing AR. It may be observed that the three SERS spectra 340, 350, 360 lack a peak at a value of 1360 cm^−1 along the horizontal axis 320. […] The chart 500 includes a SERS spectrum 530 measured when a SERS sensor (e.g., the device 100 of FIG. 1) is immersed in a urine sample of a kidney transplant recipient who is experiencing graft failure. […] The spectra 610, 620, 630 plot intensity, an expression of relative abundance expressed as a percentage, along a vertical axis 640 against mass-to-charge ratio m/z, an expression of the ratio of atomic mass to charge number, which is a dimensionless quantity, along a horizontal axis 650. […]

mannitol in the urine (patients experiencing acute rejection (AR), urine 24 hours after surgery, mannitol (e.g., 20 grams) given during kidney transplant surgery): high levels
metabolism of mannitol (patients experiencing graft failure, SERS peak at 1360 cm^-1 in urine (FIG. 5)): do not metabolize mannitol well
mannitol in patients' urine (transplant patients whose surgery is successful (no AR), urine 24 hours after surgery, mannitol (e.g., 20 grams) given during kidney transplant surgery): barely detectable
Compound: OC[C@@H](O)[C@@H](O)[C@H](O)[C@H](O)CO [mannitol]
